Patent publication US20040248887A1, “Inhibitors of cathepsin S” (IRM LLC, priority 2003, published 2004)
Like-named read-outs stand apart in the source and are kept apart here.

What was measured:
Type in all cases: biochemical
Cathepsin S = Cathepsin S (Homo sapiens, UniProt P25774); experiment: Cathepsin S inhibition, fluorogenic peptide substrate kinetic assay; conditions: Cathepsin S inhibition constant, pH5.5, read-out: Ki Cat. S
Summary of the method: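 Ki values derive from apparent constants fitted to progress curves, corrected for competition with substrate via [S] and Km. Kinetics were monitored at 380 nm excitation/450 nm emission, after substrate addition (Ac-HPVK-ACC, 50 μM final) to start the reaction.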

Cathepsin K = biological target: T1, Cathepsin K (Homo sapiens, UniProt P43235); experiment: Cathepsin K inhibition, fluorogenic peptide substrate kinetic assay; conditions: Table III; Cathepsin K inhibition constant, pH5.5; read-out: Ki Cat. K
T1 sequence (P43235 115-329): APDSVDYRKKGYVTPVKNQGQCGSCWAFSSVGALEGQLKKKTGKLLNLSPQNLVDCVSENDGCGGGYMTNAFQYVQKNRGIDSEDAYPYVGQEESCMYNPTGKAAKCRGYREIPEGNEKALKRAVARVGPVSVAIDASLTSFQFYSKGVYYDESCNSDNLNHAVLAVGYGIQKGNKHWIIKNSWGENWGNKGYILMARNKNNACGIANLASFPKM
Protocol: (§1) The optimal substrate for cathepsin K, acetyl-lysine-histidine-proline-lysine-amino carbamoyl coumarin, was identified from screening a combinatorial library of fluorogenic peptide substrates (Harris, J. L., B. J. Backes, et al., Proc Natl Acad Sci U S A 2000, 97(14), 7754-9). Kinetic measurements are performed in a total reaction volume of 30 μl in 384-well microtiter plates. […] The reactions are initiated by adding the substrate, acetyl-lysine-histidine-proline-lysine-amino carbamoyl coumarin, to a final concentration of 40 μM. The rate of substrate hydrolysis is measured by monitoring the increase in fluorescence at an excitation wavelength of 380 nm and an emission wavelength of 450 nm that results from cleavage of the aniline bond in the substrate by the enzyme. The apparent inhibition constants for the compounds are determined from the enzyme progress curves (Kuzmic, P., K. C. Elrod, et al., Anal Biochem 2000, 286(1), 45-50) and are then used to calculate the inhibition constants for competitive inhibitors.

Cathepsin L = Cathepsin L (Homo sapiens, UniProt P07711); experiment: Cathepsin L inhibition, fluorogenic peptide substrate kinetic assay; conditions: Table III; Cathepsin L inhibition constant, pH5.5; read-out: Ki Cat. L
Cathepsin L, sequence (P07711 114-333, species assumed): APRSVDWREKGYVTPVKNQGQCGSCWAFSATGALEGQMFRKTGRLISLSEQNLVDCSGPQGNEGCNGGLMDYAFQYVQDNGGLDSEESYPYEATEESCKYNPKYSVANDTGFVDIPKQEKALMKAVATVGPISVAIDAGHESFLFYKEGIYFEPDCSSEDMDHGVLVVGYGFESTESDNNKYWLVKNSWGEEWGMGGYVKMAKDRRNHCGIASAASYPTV
Protocol: as §1, with “Kinetic” for “The optimal substrate for cathepsin K, acetyl-lysine-histidine-proline-lysine-amino carbamoyl coumarin, was identified from screening a combinatorial library of fluorogenic peptide substrates (Harris, J. L., B. J. Backes, et al., Proc Natl Acad Sci U S A 2000, 97(14), 7754-9). Kinetic”, “acetyl-histidine-lysine-phenylalanine-lysine-amino” for “acetyl-lysine-histidine-proline-lysine-amino”, “20” for “40”

Cathepsin B = Cathepsin B (Homo sapiens, UniProt P07858); experiment: Cathepsin B inhibition, fluorogenic peptide substrate kinetic assay; conditions: Table III; Cathepsin B inhibition constant, pH5.5; read-out: Ki Cat. B
Protocol: The optimal substrate for cathepsin B, acetyl-histidine-proline-valine-lysine-amino carbamoyl coumarin, was identified from screening a combinatorial library of fluorogenic peptide substrates (Harris, J. L., B. J. Backes, et al., Proc Natl Acad Sci USA 2000, 97(14), 7754-9). Kinetic measurements are performed in a total reaction volume of 30 μl in 384-well microtiter plates. Cathepsin B, at a final concentration of 1.5 nM (active site), is incubated with the compounds at twelve varying concentrations in a buffer containing 100 mM NaAc (pH5.5), 1 mM EDTA, 100 mM NaCl, 0.01% Brij-35 for 20 minutes at room temperature. Control reactions in the absence of inhibitor are performed in replicates of 24. The reactions are initiated by adding the substrate, acetyl-histidine-proline-valine-lysine-amino carbamoyl coumarin, to a final concentration of 10 μM. The rate of substrate hydrolysis is measured by monitoring the increase in fluorescence at an excitation wavelength of 380 nm and an emission wavelength of 450 nm that results from cleavage of the aniline bond in the substrate by the enzyme. The apparent inhibition constants for the compounds are determined from the enzyme progress curves (Kuzmie, P., K. C. Elrod, et al., Anal Biochem 2000, 286(1), 45-50) and are then used to calculate the inhibition constants for competitive inhibitors.

Cathepsin S, sequence (P25774 115-331, species assumed): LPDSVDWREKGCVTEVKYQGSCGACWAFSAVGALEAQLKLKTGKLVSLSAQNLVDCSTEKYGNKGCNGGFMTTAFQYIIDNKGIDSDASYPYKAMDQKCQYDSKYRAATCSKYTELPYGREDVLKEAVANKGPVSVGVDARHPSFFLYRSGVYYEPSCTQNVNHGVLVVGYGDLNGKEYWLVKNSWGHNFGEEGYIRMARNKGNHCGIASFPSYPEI

| Ki (Cathepsin S; Table II) | Ki (Cathepsin S; Table III) | Ki (Cathepsin K) | Ki (Cathepsin L) | Ki (Cathepsin B) | Compound |
| --- | --- | --- | --- | --- | --- |
| < 0.1 µM | < 0.1 µM | < 10 µM | < 0.1 µM | > 10 µM | COc1cccc(C(=O)N[C@@H](CC2CCCCC2)C(=O)N[C@@H](CN2CCOCC2)CN2CCc3cc(F)ccc32)c1 [Compound 151, N-{2-Cyclohexyl-1-(S)-[2-(5-fluoro-2,3-dihydro-indol-1-yl)-1-(S)-morpholin-4-ylmethyl-ethylcarbamoyl]-ethyl}-3-methoxy-benzamide] |
| < 0.1 µM | < 0.1 µM | > 10 µM | < 10 µM | > 10 µM | O=C(N[C@H](C(=O)N[C@@H](COCc1ccccc1)CN1CCc2cc(F)ccc21)c1ccc(Cl)cc1Cl)c1ccc(F)c(F)c1 [Compound 211, N-(S)-((3-(benzyloxy)-1-(5-fluoroindolin-1-yl)propan-2-(R)-ylcarbamoyl)(2,4-dichlorophenyl)methyl)-3,4-difluorobenzamide] |
| < 0.1 µM | < 0.1 µM | > 10 µM | < 1 µM | < 1 µM | O=C(NC(CCC1CCCCC1)C(=O)NC(COCc1ccccc1)CN1CCc2cc(F)ccc21)c1cc2ccccc2[nH]1 (mixture of isomers) [Compound 41, 1H-Indole-2-carboxylic acid {(1S)-[2-benzyloxy-(1R)-(5-fluoro-2,3-dihydro-indol-1-ylmethyl)-ethylcarbamoyl]-3-cyclohexyl-propyl}-amide] |
| < 0.1 µM | < 0.1 µM | > 10 µM | > 10 µM | > 10 µM | Cn1nc(C(F)(F)F)cc1-c1ccc(S(=O)(=O)N[C@@H](CC2CCCCC2)C(=O)NCCN2CCc3cc(F)ccc32)s1 [Compound 231, (S)-3-Cyclohexyl-N-[2-(5-fluoro-2,3-dihydro-indol-1-yl)-ethyl]-2-[5-(2-methyl-5-trifluoromethyl-2H-pyrazol-3-yl)-thiophene-2-sulfonylamino]-propionamide] |
| < 0.1 µM | < 0.1 µM | > 10 µM | < 10 µM | > 10 µM | CC(C(=O)N[C@@H](CC1CCCCC1)C(=O)NCCN1CCc2cc(F)ccc21)c1ccc(O)cc1 (stereo partly drawn) [Compound 101, N-{2-cyclohexyl-1-(S)-[2-(5-fluoro-2,3-dihydro-indol-1-yl)-ethylcarbamoyl]-ethyl}-2-(4-hydroxy-phenyl)-propionamide] |
| < 0.1 µM | < 0.1 µM | > 10 µM | < 10 µM | > 10 µM | C[C@@H](CNc1ccc(OC(F)(F)F)cc1)NC(=O)[C@H](CC1CCCCC1)NC(=O)c1cnn(-c2cccc(F)c2)c1 [Compound 141, 1-(3-Fluoro-phenyl)-1H-pyrazole-4-carboxylic acid {2-cyclohexyl-1-(S)-[1-(S)-methyl-2-(4-trifluoromethoxy-phenylamino)-ethylcarbamoyl]-ethyl}-amide] |
| < 0.1 µM | < 0.1 µM | < 10 µM | < 10 µM | > 10 µM | CS(=O)(=O)Nc1ccc(C(=O)N[C@@H](CC2CCCCC2)C(=O)NCCN2CCc3cc(F)ccc32)cc1 [Compound 81, N-(S)-{2-cyclohexyl-1-[2-(5-fluoro-2,3-dihydro-indol-1-yl)-ethylcarbamoyl]-ethyl}-4-methanesulfonylamino-benzamide] |
| < 1 µM | < 1 µM | > 10 µM | < 10 µM | > 10 µM | Cc1nn(C)c(Cl)c1S(=O)(=O)N[C@@H](CC1CCCCC1)C(=O)NCCN1CCc2cc(F)ccc21 [Compound 241, (S)-2-(5-Chloro-1,3-dimethyl-1H-pyrazole-4-sulfonylamino)-3-cyclohexyl-N-[2-(5-fluoro-2,3-dihydro-indol-1-yl)-ethyl]-propionamide] |
| < 0.1 µM | < 0.1 µM | > 10 µM | < 10 µM | > 10 µM | COC(=O)c1ccc(COC[C@@H](CN2CCc3cc(F)ccc32)NC(=O)[C@H](CCC2CCCCC2)NC(=O)c2cccc(OC)c2)cc1 [Compound 171, 4-{2-(R)-[4-Cyclohexyl-2-(S)-(3-methoxy-benzoylamino)-butyrylamino]-3-(5-fluoro-2,3-dihydro-indol-1-yl)-propoxymethyl}-benzoic acid methyl ester] |
| < 0.1 µM | < 0.1 µM | < 10 µM | > 10 µM | > 10 µM | C[C@@H](CNc1ccc(OC(F)(F)F)cc1)NC(=O)[C@H](CC1CCCC1)NC(=O)O[C@@H]1CCOC1 [Compound 191, (S,S)-{2-Cyclopentyl-1-[1-methyl-2-(4-trifluoromethoxy-phenylamino)-ethylcarbamoyl]-ethyl}-carbamic acid tetrahydrofuran-3-(R)-yl ester] |
| < 0.1 µM | < 0.1 µM | < 10 µM | < 0.1 µM | > 10 µM | Cc1cccc(C(=O)N[C@@H](CC2CCCCC2)C(=O)NCCN2CCc3cc(F)ccc32)c1 [Compound 71, N—(S)-{2-cyclohexyl-1-[2-(5-fluoro-2,3-dihydro-indol-1-yl)-ethylcarbamoyl]-ethyl}-3-methyl-benzamide] |
| < 1 µM | < 1 µM | < 10 µM | < 10 µM | < 10 µM | C[C@@H](CNc1ccccc1C(N)=O)NC(=O)[C@H](CC1CCCCC1)NC(=O)c1ccc(-c2cccc(F)c2)o1 [Compound 121, 5-(3-Fluoro-phenyl)-furan-2-carboxylic acid {1-(S)-[2-(2-carbamoyl-phenylamino)-1-(S)-methyl-ethylcarbamoyl]-2-cyclohexyl-ethyl}-amide] |
| < 10 µM | < 10 µM | < 10 µM | < 1 µM | > 10 µM | COc1ccc(N2CCC[C@H](NC(=O)[C@H](CC(C)C)NC(=O)c3cccc(C)c3)C2)cc1 (single isomer, unassigned) [Compound 31] |
